Experimental findings from patent publication US7884071B2, “Administration form for pharmaceutically active peptides with sustained release and method for the production thereof” (Zentaris GmbH, priority 2002, dated 2011) are described below.

This data set in a line: Fig. 6: Physicochemical data on D-63 153. An excerpt:
Table printed on a drawing sheet, Fig. 6
Title: Fig. 6: Physicochemical data on D-63 153
First reader's note: Unruled property list for a single peptide; the value of 'Structural formula:' is a chemical drawing and is left empty.

Counter-ions that a name gives are not always drawn. Where a SMILES comes first, the peptide text is derived from it. [ ]: non-standard residue; d: D form. dPhe(4-Cl) = N[C@H](Cc1ccc(Cl)cc1)C(=O)O; d2Nal = N[C@H](Cc1ccc2ccccc2c1)C(=O)O; d(hCit) = NC(=O)NCCCC[C@@H](N)C(=O)O; NMeY = CN[C@@H](Cc1ccc(O)cc1)C(=O)O; d3Pal = N[C@H](Cc1cccnc1)C(=O)O; Nle = CCCC[C@H](N)C(=O)O

On to `CCCC[C@H](NC(=O)[C@@H](CCCCNC(N)=O)NC(=O)[C@H](Cc1ccc(O)cc1)N(C)C(=O)[C@H](CO)NC(=O)[C@@H](Cc1cccnc1)NC(=O)[C@@H](Cc1ccc(Cl)cc1)NC(=O)[C@@H](Cc1ccc2ccccc2c1)NC(C)=O)C(=O)N[C@@H](CCCNC(=N)N)C(=O)N1CCC[C@H]1C(=O)N[C@H](C)C(N)=O` [D-63153 (e.g. acetate salt), Ac-D-Nal(2)-D-Cpa-D-Pal(3)-Ser-N-Me-Tyr-D-Hci- Nle-Arg-Pro-D-Ala-NH2] (Ac-[d2Nal][dPhe(4-Cl)][d3Pal]S[NMeY][d(hCit)][Nle]RP[dA]-NH2), for which the “Solubility:” value was 0.75 mg/ml in water.
